Data set [1] addresses T1, peripheral 5-HT3 receptor (Rattus norvegicus, UniProt P35563).
T1 construct: from tissue; host or cells: whole anesthetized rat (peripheral receptors)
T1 sequence (P35563 24-483): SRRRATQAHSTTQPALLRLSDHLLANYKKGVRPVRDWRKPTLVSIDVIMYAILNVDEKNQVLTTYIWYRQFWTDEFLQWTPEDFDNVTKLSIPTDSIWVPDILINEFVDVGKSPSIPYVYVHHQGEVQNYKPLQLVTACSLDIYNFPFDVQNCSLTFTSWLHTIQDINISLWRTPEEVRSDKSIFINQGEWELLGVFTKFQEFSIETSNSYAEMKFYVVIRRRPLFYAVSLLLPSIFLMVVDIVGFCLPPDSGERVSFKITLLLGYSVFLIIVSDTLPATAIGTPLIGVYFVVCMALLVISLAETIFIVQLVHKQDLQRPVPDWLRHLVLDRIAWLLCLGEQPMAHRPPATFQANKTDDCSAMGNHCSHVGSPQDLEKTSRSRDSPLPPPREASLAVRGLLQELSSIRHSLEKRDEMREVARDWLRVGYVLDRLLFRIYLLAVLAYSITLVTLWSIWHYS
Briefly: 5-HT-evoked von Bezold-Jarish Effect (B.J.E.) in anesthetized rats. The settings on record: Cm.A 3 to 10 mg/kg. The format is in vivo. The procedure:
A bolus i.v. injection of serotonin (5-HT) (20 μg/kg) caused reflex bradycardia transiently (von Bezold—Jarish Effect: B.J.E.) via activation of peripheral 5-HT3 receptor in anesthetized rats.

In data set [2] the target is T2, 5-HT3 receptor (Mus musculus, UniProt P23979).
T2 construct: The receptor source was NIE-115 cells; host or cells: NIE-115 cells
T2 sequence (P23979 24-489): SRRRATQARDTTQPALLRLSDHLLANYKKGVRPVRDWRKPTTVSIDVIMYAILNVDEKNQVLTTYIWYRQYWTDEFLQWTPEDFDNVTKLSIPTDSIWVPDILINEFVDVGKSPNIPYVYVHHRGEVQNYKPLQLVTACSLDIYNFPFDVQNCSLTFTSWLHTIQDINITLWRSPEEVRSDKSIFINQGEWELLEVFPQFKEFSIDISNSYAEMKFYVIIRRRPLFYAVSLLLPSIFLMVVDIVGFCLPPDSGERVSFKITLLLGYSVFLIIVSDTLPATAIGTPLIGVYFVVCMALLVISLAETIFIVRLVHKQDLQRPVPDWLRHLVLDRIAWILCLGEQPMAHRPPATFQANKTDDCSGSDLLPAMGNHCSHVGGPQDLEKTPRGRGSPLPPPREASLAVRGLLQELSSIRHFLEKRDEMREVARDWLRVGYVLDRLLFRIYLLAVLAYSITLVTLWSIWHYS
Briefly: serotonin 5-HT3 binding assay (NovaScreen), NIE-115 cells. The following applies: 25° C., 60 minutes. How it is done: Binding affinity of a variety of compounds, including Cm.A, for the 5-HT3 receptor was investigated using a commercially available serotonin 5-HT3 binding assay (NovaScreen, Hanover, Md.). The receptor source was NIE-115 cells (See Lunnis, S. C. R. and Kilparick, G. J., 189: Evr. Jrnl. Pharmacol. 223 (1990); and Hoyer, D. and Heijt, H. C., 33 Mol. Pharmacol., 303 (1988)). The reference compound utilized was “MDL 72222,” a 5-HT3 receptor antagonist. Reactions were carried out in 20 mM HEPES (pH 7.4) containing 150 mM NaCl at 25° C. for 60 minutes. The reaction was terminated by rapid vacuum filtration onto glass fiber filters. Radioactivity trapped onto the filters was determined and compared with the control values.

For data set [3], the system named is cycloheximide-induced amnesia. Briefly: Passive avoidance, cycloheximide-induced memory impairment. The format is in vivo, male Wistar rats. The settings on record: oral, 30 minutes before acquisition trial; cycloheximide 1.5 mg/kg s.q. The procedure: Cutoff latency was set at 600 seconds.
Rats were treated s.q. with cycloheximide (1.5 mg/kg), a protein synthesis inhibitor, immediately after the electric shock.

In data set [4] the test system is scopolamine-induced spatial learning deficit. Briefly: Water maze, scopolamine-induced deficit in spatial learning. The class given is in vivo, rats. The following applies: p.o. 60 minutes before each trial; Cm.A 1.0 mg/kg/day; scopolamine 0.5 mg/kg i.p. How it is done: A total of 6 trials (2 trials on 1st day, and 1 trial after 2nd day) were conducted to observe the effects of the test compounds. Scopolamine (0.5 mg/kg, i.p.) and the test compounds (p.o.) were administered 30 and 60 minutes before each trial, respectively.

Data set [5] relates to aged rats (22 month-old). Put plainly: Water maze, aged rats. The format is in vivo, male Fischer 344 rats. From the text: As compared with young rats, aged rats (22 month-old) were unable shorten the escape latency period. Even after the 11th trial, only a partial decrease in the latency period was evident in the aged rats.
Data set [6] deals with healthy volunteers. Briefly: Human Phase IA single-dose, dose-escalation clinical trial. The class given is in vivo. The following applies: single oral dose 2 mg to 180 mg. The procedure:
A Phase IA clinical trial was conducted as a single-dose, double-blind, placebo-controlled, dose-escalation study. This study investigated the safety and pharmacokinetic profile of the particularly preferred salt (depicted in FIG. 1B; N-[2-( 1-benzylpiperizin-4-yl)ethyl]-2,3-dihydro-9-methoxy-1H-pyrrolo[3,4-b]quinolin-1-one hemifumarate) of the compound of FIG. 1A, N-[2-(1-benzylpiperzin-4-yl)ethyl]-2,3-dihydro-9-methoxy-1H-pyrrolo[3,4-b] quinolin-1-one. The compound was administered orally in doses from 2 mg to 180 mg to healthy volunteers (male and female), aged 50-75 years, under fasting conditions. A total of 68 individuals were enrolled in the study and completed the trial. A maximum tolerated dose was not identified in this study, i. e., even at 180 mg, there were insufficient adverse events to establish a true “maximum tolerated dose” in this study.

Each structure is given as a SMILES string. pIC50, pKi: −log10 of the molar value.

Regarding `COc1c2c(nc3ccccc13)CN(CCC1CCN(Cc3ccccc3)CC1)C2=O` [Cm.A, 2-[2-(1-benzylpiperizin-4-yl)ethyl]-2,3-dihydro-9-methoxy-1H-pyrrolo[3,4-b]quinolin-1-one hemifumarate], the “inhibition of 5-HT-evoked B.J.E. (reflex bradycardia)” value in data set [1] (i.v. pretreatment, E2020 0.1~1 mg/kg, 5-HT 20 μg/kg i.v.) is listed as “inhibited B.J.E. dose dependently”. In addition, the “blood pressure, heart rate and other signs” value in data set [1] (i.v., THA 10 mg/kg, E2020 higher than 1 mg/kg, data not shown) was “without any change on blood pressure and heart rate”. Besides, in data set [2] (IC50, 20 mM HEPES pH 7.4, 150 mM NaCl), the negative logarithm of the IC50 (pIC50) – broadly, the negative decadic logarithm of the IC50, by convention in mol/L – was 5.93. Besides, in data set [2] (Ki, 20 mM HEPES pH 7.4, 150 mM NaCl), the pKi (in general, the Ki on a negative log10 scale, so that one unit is a factor of ten) was 6.26. Besides, the “latency in retention trial, cycloheximide-induced amnesia” value in data set [3] was “prolonged the shortened latency induced by cycloheximide in a nondose dependent manner”. For the same molecule, the “deficit in spatial learning (escape latency)” value in data set [4] is “improved the deficit in spatial learning induced by scopolamine”. The “deficit of spatial learning (escape latency)” value in data set [5] is listed as “gradually improved the deficit of spatial learning to a level nearly equivalent to young rats”. In data set [6], the “safety parameters (vital signs, ECG, blood chemistry, hematology, urinalysis, physical examination)” value is listed as “no clinically significant changes” and the serious adverse events result is reported as “no serious adverse events reported”. Besides, in data set [6] (fasting, aged 50-75 years), the maximum tolerated dose was > 180 mg. Moreover, in data set [6] (68 individuals enrolled), the mild adverse events entry is given as “seven mild adverse events”.

For the origin of these results see US6586596B2, “Acetylcholine enhancers” (priority 1998, dated 2003).
